Results: PMC8719060, “Characterization of a Novel Chromosome-Encoded AmpC β-Lactamase Gene, blaPRC–1, in an Isolate of a Newly Classified Pseudomonas Species, Pseudomonas wenzhouensis A20, From Animal Farm Sewage” (Frontiers in Microbiology, 2021)

Biological target: PRC-1 (Pseudomonas wenzhouensis, UniProt Z9ZEF5EQX5)
Assay: nitrocefin hydrolysis inhibition, spectrophotometry
Type: biochemical
Settings: 100 μM nitrocefin, 5 min preincubation, 37°C; covalent

Sequence of PRC-1 (Z9ZEF5EQX5 23-379 limits assumed): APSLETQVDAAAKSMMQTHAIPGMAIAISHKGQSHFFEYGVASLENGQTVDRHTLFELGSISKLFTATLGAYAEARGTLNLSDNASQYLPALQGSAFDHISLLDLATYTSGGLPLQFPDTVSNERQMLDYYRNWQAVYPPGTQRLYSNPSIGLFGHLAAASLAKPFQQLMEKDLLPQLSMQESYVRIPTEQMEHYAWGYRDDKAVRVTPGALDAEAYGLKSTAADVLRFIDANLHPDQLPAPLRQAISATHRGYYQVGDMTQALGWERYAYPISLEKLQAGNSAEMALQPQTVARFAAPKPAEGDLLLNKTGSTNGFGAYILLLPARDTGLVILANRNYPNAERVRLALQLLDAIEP

Row | SMILES | IC50
1 | O=C(O)[C@H]1/C(=C/CO)O[C@@H]2CC(=O)N21 [clavulanic acid] | 23.4 µM
2 | NC(=O)[C@@H]1CC[C@@H]2CN1C(=O)N2OS(=O)(=O)O [avibactam] | 0.000392 µM
